Source: patent US8614253B2, “IRE-1α inhibitors” (MannKind Corporation, priority 2007, dated 2013)

Legend:
IRE-1α [1] = biological target: T1, IRE-1α (Homo sapiens (Human), UniProt O75460); assay: IRE-1α assay: in vitro cleavage of mini-XBP-1 mRNA stem-loop substrate by GST-IRE-1α; assay type: biochemical
Protocol: A fusion protein comprising glutathione S transferase (GST) and human IRE-1α (GST-IRE-1α) was obtained from a 500 ml baculovirus-infected insect cell culture and used to measure IRE-1α activity in vitro.
Five μl of a reaction mixture comprising 1× reaction buffer (5× reaction buffer is 100 mM Hepes pH 7.5, 250 mM KOAc, 2.5 mM MgCl2), 3 mM DTT, and 0.4% polyethylene glycol water were added to each well of 384 well plates. Twenty-five nanoliters of a 1 mM test compound solution were added to test wells. […] Negative control wells contained only reaction mixture and test compound.
The plates were again spun at 1200 rpm for 30 seconds.
The plates were covered with lids and incubated for one hour at 30° C. The plates were then transferred to an ACQUEST™ microplate reader. Data was analyzed using data analysis software, and the percent activity of IRE-1α was calculated.
Target sequence in this assay (O75460 19-977): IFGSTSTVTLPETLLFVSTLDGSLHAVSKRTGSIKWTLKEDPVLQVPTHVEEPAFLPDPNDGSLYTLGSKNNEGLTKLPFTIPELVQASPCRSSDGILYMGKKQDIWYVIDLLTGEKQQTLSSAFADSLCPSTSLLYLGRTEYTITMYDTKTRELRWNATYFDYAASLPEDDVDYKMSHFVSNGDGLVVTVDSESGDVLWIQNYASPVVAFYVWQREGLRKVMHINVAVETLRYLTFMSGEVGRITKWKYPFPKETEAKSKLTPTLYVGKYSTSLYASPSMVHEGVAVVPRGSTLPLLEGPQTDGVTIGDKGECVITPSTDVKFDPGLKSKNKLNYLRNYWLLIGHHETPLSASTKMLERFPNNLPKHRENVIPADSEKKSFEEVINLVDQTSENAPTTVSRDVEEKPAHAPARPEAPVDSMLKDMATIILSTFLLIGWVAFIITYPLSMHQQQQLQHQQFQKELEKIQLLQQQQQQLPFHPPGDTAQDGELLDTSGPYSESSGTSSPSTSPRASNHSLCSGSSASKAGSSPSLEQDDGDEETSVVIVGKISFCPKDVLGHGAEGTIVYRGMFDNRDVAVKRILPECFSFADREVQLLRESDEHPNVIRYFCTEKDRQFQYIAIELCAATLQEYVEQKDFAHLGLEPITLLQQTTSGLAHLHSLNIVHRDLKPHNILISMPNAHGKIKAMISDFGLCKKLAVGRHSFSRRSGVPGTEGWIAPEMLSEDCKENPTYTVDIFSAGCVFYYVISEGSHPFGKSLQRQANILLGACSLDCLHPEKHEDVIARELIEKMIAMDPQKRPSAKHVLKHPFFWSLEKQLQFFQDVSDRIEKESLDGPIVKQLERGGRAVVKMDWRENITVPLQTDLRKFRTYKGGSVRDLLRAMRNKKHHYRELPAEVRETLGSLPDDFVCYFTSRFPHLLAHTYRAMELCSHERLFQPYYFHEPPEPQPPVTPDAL

[2] = system: RPMI-8226 multiple myeloma cells; assay: Proliferation of multiple myeloma cells (CellTiter-Glo); assay type: cell-based, human; settings: RPMI8226 cells, 24 hours, FIG. 5
Protocol: FIG. 5. Graph showing inhibition of proliferation of multiple myeloma cells by IRE-1α inhibitor 11-28 (Example 11). RPMI-8226 multiple myeloma cells were seeded at 20,000 cells per well in RPMI culture medium containing 1% FBS and the required antibiotics. The plate was incubated overnight at 37° C., 95% air, 5% CO2. The following day, compound 11-28 or medium alone was added to wells, resulting in a final volume of 100 μl per well. The compound concentration ranged from 100 μM to 0 μM, with compounds diluted by a factor of 4. After addition of compound, the plate was incubated at 37° C., 95% air, 5% CO2 for 24 hours. Cell proliferation was measured using the CellTiter-Glo assay (Promega), following the manufacturer's instructions.
Proliferation assays using myeloma cell lines (U266, RPMI8226 and MM.1s) are used to determine ED50. Compounds are used as single agents and in combination with other chemotherapeutic drugs.

primary murine B cells = assay: IgM secretion after LPS stimulation of primary murine B cells; assay type: cell-based, mouse
Protocol: FIG. 9. Inhibition of IgM secretion after LPS stimulation of primary murine B cells with selected IRE-1α inhibitors. […] However, compounds had little effect when at added after 40 hours of stimulation; only slight inhibition at the highest dose. Methods were performed as previously described by Iwakoshi et al., Nature 4, 321-29, 2003 for B cell stimulation, plasma cell differentiation and IgM secretion. Primary B cells were Isolated from BALB/c splenocytes using mouse CD43 Microbeads (Miltenyi cat# 130-049-801) with 1×10^6 cells per treatment. Purified B cells were stimulated in B Cell Media at a final density of 1×10^6/ml/well in 24-well plates with 20 μg/ml LPS (Sigma cat# L4391). IRE-1α inhibitor compound 17-1 was added at various concentrations (50 μM, 10 μM, 2 μM, 0.4 μM and 0.08 μM) at specified time points (t=0, t=24 hr, t=40 hr, etc.) Cells were incubated for 48 hr at 37° C. At end of the incubation, cells were spun in a plate at 1500 rpm/3 min. Supernatants were collected for quantitation for IgM secretion using a mouse IgM ELISA Kit (Bethyl Labs cat# E90-101). B Cell medium included RPMI+10% FBS supplemented with NEAA, HEPES, NaPyr, PSQ, and β-mercaptoethanol.

IRE-1α [3] = biological target: T1, IRE-1α; assay: Phosphorylated IRE-1α and XBP1-splicing in RPMI8226 cells (Western blot, agarose gel); assay type: cell-based; settings: 24 hour treatment, FIG. 6
Text: FIG. 6. […] The numbers indicate the concentration of bortezomib in nM.

[4] = system: human myeloma RPMI8226 tumor xenografts; assay: RPMI8226 myeloma tumor xenograft in SCID mice; assay type: in vivo, mouse; settings: 0.75 mg/kg IV twice weekly

**Q.** Which IC50 (IRE-1α [1]; values in text) does the source give for COc1ccc(Br)c(C=O)c1O [6-bromo o-vanillin] here?
**A.** 30 nM

**Q.** How did the inhibition of proliferation [2] turn out when COc1cc(-c2cccs2)cc(C=O)c1O [11-28] was run?
**A.** inhibits the proliferation of RPMI8226 myeloma cells

**Q.** CN(C)C(=O)c1ccc(-c2ccc3c(C=O)c(O)ccc3c2)cc1 [17-1, 4-(5-formyl-6-hydroxynaphthalen-2-yl)-N,N-dimethylbenzamide] was tested. Which IgM secretion (primary murine B cells; added after 40 hours of stimulation) did it give?
**A.** little effect

**Q.** What about the IgM secretion (primary murine B cells; added at beginning of stimulation and again at 24 hours) of the same compound?
**A.** blocked IgM secretion at all doses tested down to 100 nM

**Q.** What does the source list for CC(C)C[C@H](NC(=O)[C@H](Cc1ccccc1)NC(=O)c1cnccn1)B(O)O [bortezomib, [(1R)-3-methyl-1-[[(2S)-1-oxo-3-phenyl-2-[(pyrazinylcarbonyl)amino]propyl]amino]butyl]boronic acid]?
**A.** levels of phosphorylated IRE-1α and XBP1-splicing (IRE-1α [3]): increases the levels of phosphorylated IRE-1α and XBP1-splicing; tumor growth [4]: suppression of tumor growth

**Q.** With COc1ccc(Br)c(C=O)c1O [drawing 180] as the compound, how does the IC50 (IRE-1α [1]; Table 3) read?
**A.** 80 nM

**Q.** Which IC50 (IRE-1α [1]; Table 3) does the source give for COc1cccc(C=O)c1O [drawing 230] here?
**A.** 2370 nM

**Q.** With COc1cccc(C=O)c1O [drawing 238] as the compound, how does the IC50 (IRE-1α [1]; Table 3) read?
**A.** 5750 nM

**Q.** COc1cccc(C=O)c1O [o-vanillin, 2-hydroxy-3-methoxybenzaldehyde] was tested. Which IC50 (IRE-1α [1]; values in text) did it give?
**A.** 3000 nM
